Measured values: article PMC5028882, “Antiviral activities of peptide-based covalent inhibitors of the Enterovirus 71 3C protease” (Scientific Reports, 2016)
Entries after “also recorded” stand apart in the source; their conditions may differ. Like-named read-outs stand apart in the source and are kept apart here.

Assays:
EV71 3C protease [1] = biological target: T1, EV71 3C protease (Human enterovirus 71, UniProt Q66478); test: EV71 3C protease inhibition assay (chromogenic substrate succinyl-EALFQ-pNA); type: biochemical; details: EV71 3C protease 6 μM, 2 h preincubation at 25 °C, pH 7.0; read-out: Inhibitory Potency, IC50
T1 sequence (Q66478 1549-1731): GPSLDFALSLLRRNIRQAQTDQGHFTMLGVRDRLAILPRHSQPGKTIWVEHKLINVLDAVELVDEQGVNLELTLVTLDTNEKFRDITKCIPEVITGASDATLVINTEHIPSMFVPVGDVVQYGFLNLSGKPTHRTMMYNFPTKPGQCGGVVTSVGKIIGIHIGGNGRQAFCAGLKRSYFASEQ
Procedure: EV71 3C protease inhibition assays were based on a published procedure[7] and performed in a buffer containing Tris-HCl (50 mM), NaCl (150 mM), EDTA (1 mM), glycerol (10% v/v) and DTT (2 mM) at pH 7.0. The protease (6 μM) and varying inhibitor concentrations were incubated at 25 °C for 2 h. The final DMSO concentration was maintained at 2%. After that, the chromogenic peptide substrate succinyl-EALFQ-pNA (Peptides International, USA) was added to make a final concentration of 200 μM. The contents were incubated at 25 °C for 2 h. Absorbance at 405 nm was measured with a plate reader at 30 °C. All experiments were conducted in duplicates. IC50 values were derived by fitting the initial velocity against the log [inhibitor] using GraphPad Prism 5 software (USA).

[2] = tested on: EV71-infected human RD cells; test: Antiviral cellular assay, EV71-infected RD cells, virus titre by plaque assay; type: cell-based, human enterovirus 71 (EV71); details: for Antiviral activity on EV71-infected RD cells (in words): virus titre reduction, up to 5 μM, 12 h; for EC50: Enterovirus A, read-out: EC50 for EV71 infections
Procedure: (§1) Human RD cells were cultured in DMEM/F-12 (Gibco) supplemented with 10% FBS (GE Healthcare) and the infection medium used for all infections and compound treatment contained was supplemented with 2% FBS. For the compound treatment assays, monolayers of RD cells were first infected with EV71 at a multiplicity of infection (MOI) of 1 for 1 hour at 37 °C, 5% CO2. The compounds were then introduced to the cells at different concentrations. Culture supernatant was collected at 12 hours post-treatment for determination of infectious virus titre by viral plaque assay. Each culture supernatant was 10-fold serially diluted and 100 μL was added, in triplicates, to a monolayer of RD cells in a 24-well format. The infection was allowed to proceed for 1 h at 37 °C, 5% CO2 before the virus was removed. The cells were then washed to remove unbound virus particles with PBS (pH 7.4) and overlaid with infection medium containing 0.5% agarose. The cells were incubated for 48 hours at 37 °C before they were fixed with 4% paraformaldehyde and stained with crystal violet. Plaques that formed were counted visually and the infectious virus titre was calculated, expressed as the average number of PFU per milliliter (PFU/mL) of sample. The 50% effective concentration, EC50, was determined for selected compounds by a non-linear regression graph fitting of the virus titre obtained at a minimum of 5 different compound concentrations and 0.05% DMSO was included as an untreated control.

[3] = Parallel artificial membrane permeability assay (PAMPA); type: in vitro ADME; details: for Papp at 4 h, 50 μM: pH 7.4, 50 μM, 4 h incubation, read-out: Permeability (P) at pH 7.4
Procedure: PAMPA was conducted by GVK Biosciences (India) using Pion PAMPA Sandwich Plates (Pion Inc., USA). Briefly: test compounds were dissolved in buffer at pH 7.4 to make a 50 μM stock solution. 200 μL was then added to the donor compartment of the plate. The plate was inverted and 200 μL of buffer (pH 7.4) was added to the acceptor compartment. After incubation (4 hours), a 50 μL sample was analyzed by UV using a spectrophotometer. Experiments were conducted in triplicates. Compound permeability (P) was calculated using the formula:
where: CA = compound concentration in the acceptor compartment at 4 h, Ceq = compound concentration at equilibrium at 4 h, A = filter area (0.3 cm^2), VA = acceptor compartment volume (200 μL), VD = donor compartment volume (200 μL), t = incubation time (14,400 s). Compounds with a P value of <10 × 10^−6 cm.s^−1 are considered to have low permeability.

EV71 3C protease [4] = biological target: T1, EV71 3C protease; details: cited from earlier work; for IC50: EV71 3C protease (strain 5865/sin/000009), biochemical protease inhibition assay, read-out: Inhibitory Potency, IC50
Echovirus 7 (E7) = test: Antiviral assay, Echovirus 7-infected RD cells; type: cell-based; details: 100 nM and 1 μM, virus titre after 12 hours
Procedure: (§2) RD cells were infected with either Coxsackievirus A6 (CA6), Coxsackievirus A16 (CA16) (strain G-10, GenBank accession no. U05876), patient isolates of Coxsackievirus A6 (CA6), or Echovirus 7 (E7) and subjected to treatment with compound 9 at 100 nM or 1 μM or negative control 0.05% DMSO.
as §1, with “The cells were incubated for 48 hours at 37 °C before they were fixed with 4% paraformaldehyde and stained with crystal violet.” left out, “The 50% effective concentration, EC50, was determined for selected compounds by a non-linear regression graph fitting of the virus titre obtained at a minimum of 5 different compound concentrations and 0.05% DMSO was included as an untreated control.” left out

Coxsackievirus A6 (CA6) = test: Antiviral assay, Coxsackievirus A6-infected RD cells; type: cell-based; details: 100 nM and 1 μM, virus titre after 12 hours
Procedure: as §2
as §1, with “The cells were incubated for 48 hours at 37 °C before they were fixed with 4% paraformaldehyde and stained with crystal violet.” left out, “The 50% effective concentration, EC50, was determined for selected compounds by a non-linear regression graph fitting of the virus titre obtained at a minimum of 5 different compound concentrations and 0.05% DMSO was included as an untreated control.” left out

[5] = tested on: Coxsackievirus A16 (CA16); test: Antiviral assay, Coxsackievirus A16-infected RD cells; type: cell-based; details: 100 nM and 1 μM, virus titre after 12 hours
Procedure: as §2
as §1, with “The cells were incubated for 48 hours at 37 °C before they were fixed with 4% paraformaldehyde and stained with crystal violet.” left out, “The 50% effective concentration, EC50, was determined for selected compounds by a non-linear regression graph fitting of the virus titre obtained at a minimum of 5 different compound concentrations and 0.05% DMSO was included as an untreated control.” left out

| Structure (SMILES) | IC50 (EV71 3C protease [1]) [µM] | Papp at 4 h, 50 μM [3] [×10⁻⁶ cm/s] | Antiviral activity on EV71-infected RD cells (in words) [2] | other results |
| --- | --- | --- | --- | --- |
| CCOC(=O)/C=C/[C@H](C[C@@H]1CCNC1=O)NC(=O)[C@@H](CC(=O)[C@@H](NC(=O)c1cccnc1)C(C)C)Cc1ccc(F)cc1 [Compound 6, ethyl-(S,E)-4-(2R,5S)-2-(4-fluorobenzyl)-6-methyl-5-nicotinamido-4-oxoheptanamido-5-(S)-2-oxopyrrolidin-3-yl-pent-2-enoate] | > 100 | 16.9 ± 5.2 | did not exhibit significant antiviral activity | – |
| CCOC(=O)/C=C/[C@H](C[C@@H]1CCNC1=O)NC(=O)[C@@H]1[C@@H](c2ccccc2)CCN1C(=O)[C@@H](NC(=O)c1cc(C)on1)C(C)C [Compound 2] | – | 7.1 ± 0.9 | failed to demonstrate significant antiviral activity; also recorded: weakly active | Fold less permeable than Rupintrivir ([3]; pH 7.4): approximately 7 fold; IC50 (EV71 3C protease [4]): 3.2 ± 0.5 µM; Fold more potent than Rupintrivir in the protease inhibition assay (EV71 3C protease [4]; IC50 compared with Rupintrivir): 2 fold |
| CCOC(=O)/C=C/[C@H](C[C@@H]1CCNC1=O)NC(=O)[C@@H](CC(=O)[C@@H](NC(=O)c1ccccn1)C(C)C)Cc1ccc(F)cc1 [Compound 5, ethyl-(S,E)-4-(2R,5S)-2-(4-fluorobenzyl)-6-methyl-4-oxo-5-picolinamidoheptanamido-5-(S)-2-oxopyrrolidin-3-yl-pent-2-enoate] | 22.4 ± 3.5 | 14.9 ± 3.3 | did not exhibit significant antiviral activity | – |
| CCOC(=O)/C=C/[C@H](C[C@@H]1CCNC1=O)NC(=O)[C@@H](CC(=O)[C@@H](NC(=O)C(F)(F)F)C(C)C)Cc1ccc(F)cc1 [Compound 9] | 7.7 ± 0.8 | 32.7 ± 6.7 | exhibited antiviral activity; also recorded: potent antiviral activity | EC50 ([2]; EV71, RD): 0.065 µM; Antiviral activity against Echovirus 7 (in words) (Echovirus 7 (E7)): potent antiviral activity; also recorded: demonstrated antiviral activities; Antiviral activity against Coxsackievirus A6 (in words) (Coxsackievirus A6 (CA6)): potent antiviral activity; also recorded: demonstrated antiviral activities; Antiviral activity against Coxsackievirus A16 (in words) [5]: potent antiviral activity; also recorded: demonstrated antiviral activities |
| CCOC(=O)/C=C/[C@H](C[C@@H]1CCNC1=O)NC(=O)[C@@H](CC(=O)[C@@H](NC(=O)C(C)(C)C)C(C)C)Cc1ccc(F)cc1 [Compound 10, ethyl-(S,E)-4-(2R,5S)-2-(4-fluorobenzyl)-6-methyl-4-oxo-5-pivalamidoheptanamido-5-(S)-2-oxopyrrolidin-3-yl-pent-2-enoate] | > 100 | 15 ± 2.6 | abrogation of both biochemical and cellular activity | – |
| CCOC(=O)/C=C/[C@H](C[C@@H]1CCNC1=O)NC(=O)[C@@H](CC(=O)[C@@H](NC(=O)C(C)C)C(C)C)Cc1ccc(F)cc1 [Compound 11, ethyl-(S,E)-4-(2R,5S)-2-(4-fluorobenzyl)-5-isobutyramido-6-methyl-4-oxoheptanamido-5-(S)-2-oxopyrrolidin-3-yl-pent-2-enoate] | 11.7 ± 0.7 | 16.9 ± 0.8 | significantly reduced antiviral activity | – |
| CCOC(=O)/C=C/[C@H](C[C@@H]1CCNC1=O)NC(=O)[C@@H](CC(=O)[C@@H](NC(=O)c1cc(C)on1)C(C)C)Cc1ccc(F)cc1 [Compound 1, Rupintrivir, reference compound] | – | 46.9 ± 4.7 | significant reduction in viral titre | EC50 ([2]; EV71-infected RD cells, virus titre by plaque assay): 0.016 µM; Membrane permeability (in words) ([3]; pH 7.4): highly membrane permeable; Antiviral activity against Echovirus 7 (in words) (Echovirus 7 (E7)): demonstrated antiviral activities; Antiviral activity against Coxsackievirus A6 (in words) (Coxsackievirus A6 (CA6)): demonstrated antiviral activities; Antiviral activity against Coxsackievirus A16 (in words) [5]: demonstrated antiviral activities; IC50 (EV71 3C protease [4]): 7.3 ± 0.8 µM; Inhibition of EV71 3C protease (in words) (EV71 3C protease [4]; earlier reports): micromolar potency |

Further lines, with some results ahead:

| IC50 (EV71 3C protease [1]) [µM] | Papp at 4 h, 50 μM [3] [×10⁻⁶ cm/s] | Structure (SMILES) | Antiviral activity on EV71-infected RD cells (in words) [2] | other results |
| --- | --- | --- | --- | --- |
| 6.2 ± 0.6 | 25.1 ± 3.6 | CCOC(=O)/C=C/[C@H](C[C@@H]1CCNC1=O)NC(=O)[C@H](Cc1ccc(F)cc1)NC(=O)[C@@H](NC(=O)c1cc(C)on1)C(C)C [Compound 3] | significantly less potent than Rupintrivir | Fold less permeable than Rupintrivir ([3]; pH 7.4): approximately 2 fold |
| 3.7 ± 0.6 | 12.6 ± 0.7 | CCOC(=O)/C=C/[C@H](C[C@@H]1CCNC1=O)NC(=O)[C@@H](CC(=O)[C@@H](NC(=O)c1ccc(C)nn1)C(C)C)Cc1ccc(F)cc1 [Compound 8, ethyl-(S,E)-4-(2R,5S)-2-(4-fluorobenzyl)-6-methyl-5-(6-methylpyridazine-3-carboxamido)-4-oxoheptanamido-5-(S)-2-oxopyrrolidin-3-yl-pent-2-enoate] | inferior compared to Rupintrivir; also recorded: failed to demonstrate significant antiviral activity | – |
| 9.3 ± 0.6 | 12.6 ± 1.8 | CCOC(=O)/C=C/[C@H](C[C@@H]1CCNC1=O)NC(=O)[C@@H](CC(=O)[C@@H](NC(=O)c1cccnn1)C(C)C)Cc1ccc(F)cc1 [Compound 4, ethyl-(S,E)-4-(2R,5S)-2-(4-fluorobenzyl)-6-methyl-4-oxo-5-pyridazine-3-carboxamidoheptanamido-5-(S)-2-oxopyrrolidin-3-yl-pent-2-enoate] | significantly reduced | – |
| 5.2 ± 1 | 11.6 ± 2.3 | CCOC(=O)/C=C/[C@H](C[C@@H]1CCNC1=O)NC(=O)[C@@H](CC(=O)[C@@H](NC(=O)c1nnccc1C)C(C)C)Cc1ccc(F)cc1 [Compound 7, ethyl-(S,E)-4-(2R,5S)-2-(4-fluorobenzyl)-6-methyl-5-(4-methylpyridazine-3-carboxamido)-4-oxoheptanamido-5-(S)-2-oxopyrrolidin-3-yl-pent-2-enoate] | inferior compared to Rupintrivir; also recorded: failed to demonstrate significant antiviral activity | – |
